Several values for one entry are separate records, joined by “and”; a condition that tells them apart may be missing. Identical values can stand only once. Inconclusive results and toxic doses are left out. How the source made its calls: active means survival T/C of 150% or more; inactive means T/C below 125% in these data.
Test system: P388 leukemia ip, CD2F1 mice, survival T/C
Assay: NCI In Vivo Anticancer Drug Screen. Data for tumor model P388 Leukemia (intraperitoneal) in CD2F1 (CDF1) mice
Conditions: endpoint: median survival time, higher = longer survival
Method in brief: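 Mice carrying the transplanted tumor received test compound or vehicle. Survival was recorded in each group, and the value is the treated-group measurement divided by that of the vehicle-treated control group.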

[1] = dose: 100.0 mg/kg/injection, schedule: Q01DX009 (ip), vehicle: saline with Tween-80
[2] = dose: 200.0 mg/kg/injection, schedule: Q01DX009 (ip), vehicle: saline with Tween-80
[3] = dose: 400.0 mg/kg/injection, schedule: Q01DX009 (ip), vehicle: saline with Tween-80
[4] = dose: 60.0 mg/kg/injection, schedule: Q01DX005 (ip), vehicle: saline with Tween-80
[5] = dose: 120.0 mg/kg/injection, schedule: Q01DX005 (ip), vehicle: saline with Tween-80
[6] = dose: 240.0 mg/kg/injection, schedule: Q01DX005 (ip), vehicle: saline with Tween-80
[7] = dose: 50.0 mg/kg/injection, schedule: Q01DX005 (ip), vehicle: saline with Tween-80
[8] = dose: 100.0 mg/kg/injection, schedule: Q01DX005 (ip), vehicle: saline with Tween-80
[9] = dose: 200.0 mg/kg/injection, schedule: Q01DX005 (ip), vehicle: saline with Tween-80
[10] = dose: 12.5 mg/kg/injection, schedule: Q01DX005 (ip), vehicle: saline with Tween-80
[11] = dose: 25.0 mg/kg/injection, schedule: Q01DX005 (ip), vehicle: saline with Tween-80
[12] = dose: 60.0 mg/kg/injection, schedule: Q01DX005 (ip), vehicle: Klucel (hydroxypropylcellulose) (HPC)
[13] = dose: 120.0 mg/kg/injection, schedule: Q01DX005 (ip), vehicle: Klucel (hydroxypropylcellulose) (HPC)
[14] = dose: 240.0 mg/kg/injection, schedule: Q01DX005 (ip), vehicle: Klucel (hydroxypropylcellulose) (HPC)
[15] = dose: 50.0 mg/kg/injection, schedule: Q01DX005 (ip), vehicle: saline
[16] = dose: 100.0 mg/kg/injection, schedule: Q01DX005 (ip), vehicle: saline
[17] = dose: 200.0 mg/kg/injection, schedule: Q01DX005 (ip), vehicle: saline

Measured: T/C

COc1ccc(OCC(O)CN2CCN(c3ccc(Cl)cc3)CC2)cc1 (centres undefined)
inactive: [1] 99 % of control | dose: 100.0 mg/kg/injection, schedule: Q04DX003 (ip), vehicle: Klucel (hydroxypropylcellulose) (HPC) 100 % of control | [2] 101 % of control | dose: 200.0 mg/kg/injection, schedule: Q04DX003 (ip), vehicle: Klucel (hydroxypropylcellulose) (HPC) 100 % of control | [3] 92 % of control

O=C([CH-]C(=O)C(F)(F)F)c1ccco1.O=C([CH-]C(=O)C(F)(F)F)c1ccco1.O=C([CH-]C(=O)C(F)(F)F)c1ccco1.[Ru+3]
inactive: [4] 100 % of control | [5] 97 % of control | [6] 89 % of control

CC1CCC2N(C1)CC1C3(O)CC4(O)C(CCC5C(=O)C(O)CCC54C)C3(O)CC(O)C1(O)C2(C)O (centres undefined)
inactive: dose: 1.87 mg/kg/injection, schedule: Q01DX005 (ip), vehicle: Klucel (hydroxypropylcellulose) (HPC) 96 % of control | dose: 3.75 mg/kg/injection, schedule: Q01DX005 (ip), vehicle: Klucel (hydroxypropylcellulose) (HPC) 97 % of control | dose: 7.5 mg/kg/injection, schedule: Q01DX005 (ip), vehicle: Klucel (hydroxypropylcellulose) (HPC) 99 % of control and 97 % of control

CCOC(=O)C1=NNC(C#N)C1 (centres undefined)
inactive: [7] 101 % of control | [8] 97 % of control | [9] 99 % of control

O=C1C=CC(=NBr)C=C1
inactive: [4] 108 % of control | [5] 110 % of control | [6] 108 % of control

COc1ccccc1N=NC1=C2Sc3ccccc3N=C1N(c1ccccn1)C(=S)N2c1ccc(Cl)cc1
inactive: [10] 103 % of control | [11] 100 % of control | [7] 110 % of control and 117 % of control

CCCCCC(CN(C)C)C(=O)/C=C/c1ccc(C)cc1 (centres undefined)
inactive: [10] 98 % of control | [11] 100 % of control | [7] 106 % of control and 97 % of control | [8] 98 % of control

N#CC(C#N)=CNc1ccccc1C(=O)NCCCn1ccnc1
inactive: [4] 93 % of control | [5] 93 % of control | [6] 95 % of control

OC1(c2cccc(Cl)c2)C2=NCCCN2c2ccccc21 (centres undefined)
inactive: dose: 6.25 mg/kg/injection, schedule: Q01DX009 (ip), vehicle: saline with Tween-80 95 % of control | dose: 12.5 mg/kg/injection, schedule: Q01DX009 (ip), vehicle: saline with Tween-80 91 % of control

N#C/C(=C1/Nc2ccccc2NC1=O)c1ccccc1
inactive: dose: 50.0 mg/kg/injection, schedule: Q01DX009 (ip), vehicle: distilled water + Tween-80 + alcohol 96 % of control | dose: 100.0 mg/kg/injection, schedule: Q01DX009 (ip), vehicle: distilled water + Tween-80 + alcohol 92 % of control

C=CC(C)(O)CS(=O)(=O)c1ccccc1 (centres undefined)
inactive: dose: 50.0 mg/kg/injection, schedule: Q01DX009 (ip), vehicle: saline 93 % of control | dose: 100.0 mg/kg/injection, schedule: Q01DX009 (ip), vehicle: saline 101 % of control | dose: 200.0 mg/kg/injection, schedule: Q01DX009 (ip), vehicle: saline 101 % of control

CC(C)(C)[Si](C)(C)O[C@H]1C=C(S(=O)(=O)c2ccccc2)[C@H](O)C1
inactive: [12] 100 % of control | [13] 102 % of control | [14] 100 % of control

O=C(O)CCCc1ccccc1[N+](=O)[O-]
inactive: dose: 50.0 mg/kg/injection, schedule: Q01DX009 (ip), vehicle: saline with Tween-80 105 % of control | [1] 105 % of control | [2] 103 % of control | [3] 105 % of control

C=CCN=C([S-])Nc1cccc(C(=O)O)c1.[Au+].[Na+]
inactive: dose: 60.0 mg/kg/injection, schedule: Q01DX005 (ip), vehicle: saline 106 % of control | dose: 120.0 mg/kg/injection, schedule: Q01DX005 (ip), vehicle: saline 106 % of control | dose: 240.0 mg/kg/injection, schedule: Q01DX005 (ip), vehicle: saline 108 % of control

O=C(COc1ccc(Cl)cc1Cl)N1CCNC1=S
inactive: dose: 50.0 mg/kg/injection, schedule: Q01DX009 (ip), vehicle: Klucel (hydroxypropylcellulose) (HPC) 100 % of control | dose: 100.0 mg/kg/injection, schedule: Q01DX009 (ip), vehicle: Klucel (hydroxypropylcellulose) (HPC) 103 % of control | dose: 200.0 mg/kg/injection, schedule: Q01DX009 (ip), vehicle: Klucel (hydroxypropylcellulose) (HPC) 100 % of control

CC1CC12OC(=O)N(c1cc(Cl)cc(Cl)c1)C2=O (centres undefined)
inactive: dose: 50.0 mg/kg/injection, schedule: Q01DX005 (ip), vehicle: saline + Tween-80 + alcohol 98 % of control | dose: 100.0 mg/kg/injection, schedule: Q01DX005 (ip), vehicle: saline + Tween-80 + alcohol 100 % of control | dose: 200.0 mg/kg/injection, schedule: Q01DX005 (ip), vehicle: saline + Tween-80 + alcohol 101 % of control

COc1ccn(C2CCCCO2)c(=O)n1 (centres undefined)
inactive: [15] 108 % of control | [16] 108 % of control | [17] 108 % of control

O=C1C=C(NCCNCCO)C(=O)c2ccccc21
inactive: dose: 6.25 mg/kg/injection, schedule: Q01DX009 (ip), vehicle: distilled water + Tween-80 96 % of control | dose: 12.5 mg/kg/injection, schedule: Q01DX009 (ip), vehicle: distilled water + Tween-80 98 % of control and 95 % of control | dose: 25.0 mg/kg/injection, schedule: Q01DX009 (ip), vehicle: distilled water + Tween-80 109 % of control and 95 % of control | dose: 50.0 mg/kg/injection, schedule: Q01DX009 (ip), vehicle: distilled water + Tween-80 111 % of control and 94 % of control | dose: 100.0 mg/kg/injection, schedule: Q01DX009 (ip), vehicle: distilled water + Tween-80 88 % of control and 97 % of control

NC(CCP(=O)(O)O)C(=O)O (centres undefined)
inactive: [15] 107 % of control | [16] 97 % of control | dose: 100.0 mg/kg/injection, schedule: Q04DX002 (ip), vehicle: saline with Tween-80 100 % of control | [17] 92 % of control | dose: 200.0 mg/kg/injection, schedule: Q04DX002 (ip), vehicle: saline with Tween-80 87 % of control | dose: 400.0 mg/kg/injection, schedule: Q04DX002 (ip), vehicle: saline with Tween-80 89 % of control

COc1ccc2c(c1)CC(=CO)CC2=O.COc1ccc2c(c1)CC/C(=C/O)C2=O.[Cu]
inactive: dose: 37.5 mg/kg/injection, schedule: Q01DX009 (ip), vehicle: saline with Tween-80 100 % of control | dose: 75.0 mg/kg/injection, schedule: Q01DX009 (ip), vehicle: saline with Tween-80 90 % of control | [1] 95 % of control | dose: 150.0 mg/kg/injection, schedule: Q01DX009 (ip), vehicle: saline with Tween-80 109 % of control | [2] 123 % of control | dose: 200.0 mg/kg/injection, schedule: Q04DX003 (ip), vehicle: saline with Tween-80 91 % of control | dose: 400.0 mg/kg/injection, schedule: Q04DX003 (ip), vehicle: saline with Tween-80 91 % of control

CC(OC1OC(C(=O)O)C(O)C(O)C1O)c1ccccc1 (centres undefined)
inactive: dose: 200.0 mg/kg/injection, schedule: Q01DX009 (ip), vehicle: saline sonified 100 % of control | dose: 400.0 mg/kg/injection, schedule: Q01DX009 (ip), vehicle: saline sonified 95 % of control

CCCCN=C(N)N/N=C(\C)c1cccc2c1Cc1c(/C(C)=N/NC(N)=NCCCC)cccc1-2
inactive: dose: 12.5 mg/kg/injection, schedule: Q04DX002 (ip), vehicle: saline with Tween-80 108 % of control

CCN(CC)CCCOc1ncnc2ccc(Cl)cc12
inactive: dose: 25.0 mg/kg/injection, schedule: Q01DX005 (ip), vehicle: saline 98 % of control | [15] 99 % of control | [16] 93 % of control | [17] 96 % of control

Cc1cc(=O)oc2cc(NC(=O)C(CCCN=C(N)N)NC(=O)OCc3ccccc3)ccc12 (centres undefined)
inactive: [7] 97 % of control | [8] 98 % of control | [9] 94 % of control

COc1cc2ccc(/C=N/NC(N)=S)cc2cc1OC
inactive: dose: 12.5 mg/kg/injection, schedule: Q01DX009 (ip), vehicle: water 96 % of control | dose: 25.0 mg/kg/injection, schedule: Q01DX009 (ip), vehicle: water 90 % of control | dose: 50.0 mg/kg/injection, schedule: Q01DX009 (ip), vehicle: water 96 % of control | dose: 100.0 mg/kg/injection, schedule: Q01DX009 (ip), vehicle: water 91 % of control | dose: 200.0 mg/kg/injection, schedule: Q01DX009 (ip), vehicle: water 89 % of control

CC1=C(C(N)=O)C(c2ccc([N+](=O)[O-])cc2)NC(=S)N1 (centres undefined)
inactive: [12] 92 % of control | [13] 90 % of control | [14] 92 % of control

Source: PubChem BioAssay AID330 (DTP/NCI, 2004)
